Experimental data taken from patent publication US20180050994A1 (THE JOHNS HOPKINS UNIVERSITY, priority 2013, published 2018).

How the values were obtained:
hNav1.1 = biological target: T1, hNav1.1 (Homo sapiens, UniProt P35498); assay: Two-electrode voltage-clamp recording of hNav1.1 gating in Xenopus oocytes; assay type: cell-based; conditions: for effect on hNav1.1 persistent current / effect on hNav1.1 opening (G-V relationship): 100 μM; for effect on hNav1.1 persistent current: analyzed at the end of a 50 ms test pulse; for effect on hNav1.1 opening (G-V relationship): significance at p<0.005; for Activation (V1/2): hNav1.1 + β1 in Xenopus oocytes, ≤1% DMSO, DMSO control −38.2 ± 1.9 mV; for Activation (V1/2) / Inactivation (V1/2): 100 μM drug; for Inactivation (V1/2): hNav1.1, steady-state inactivation, DMSO control −49.4 ± 0.3 mV
T1 construct: host or cells: Xenopus oocytes (cRNA injection)

hNav1.3 = biological target: T2, hNav1.3 (Homo sapiens, UniProt Q9NY46); assay: Two-electrode voltage-clamp recording of hNav1.3 gating in Xenopus oocytes; assay type: cell-based; conditions: for Activation (V1/2): hNav1.3, 100 μM drug, DMSO control −24.7 ± 1.6 mV; for Inactivation (V1/2): hNav1.3, steady-state inactivation, 100 μM drug, DMSO control −52.8 ± 0.9 mV
T2 construct: host or cells: Xenopus oocytes (cRNA injection)

rat hippocampal neurons = assay: Action potential threshold recordings in hippocampal neurons; assay type: cell-based; conditions: 100 μM Compound B
Procedure: Action potential threshold recordings in hippocampal neurons. Hippocampal neurons were dissected from Sprague Dawley rat embryos at embryonic day 18. Cells were treated with papain (Worthington Biochemical), dissociated with a pipette and plated over coverslips coated with collagen (Life Technologies) and poly-D-Lysine (Sigma-Aldrich). Astrocyte beds were prepared at a density of 80,000 cells/ml and cultured in DMEM (Life Technologies) with 10% Fetal Bovine Serum, 6 mM glutamine for 14 days in 5% CO2 at 37° C. Total medium was changed every week. Neurons were plated over confluent astrocyte beds at a density of 150,000 cells/ml and cultured for 3 weeks in Neurobasal media (Life Technologies) supplemented with B27 and 2 mM glutaMAX. Half of the media was changed every 3-4 days. Cells were treated for 3 hours with compound B in 0.3% DMSO or control (media containing 0.3% DMSO) before recording. Coverslips were transferred to a chamber perfused at 2 ml/minute at 32° C. with ACSF containing (in mM): 140 NaCl, 5 KCl, 2 CaCl2, 2 MgCl2, 10 HEPES, and 10 Glucose (pH 7.3 adjusted with NaOH). […] Action potential thresholds were measured by a series of 100 ms, 10 pA depolarizing current injections. At the minimal current injection needed to elicit an action potential, firing threshold was determined by calculating the potential at which the rate of rise crossed 40 V/s, using AxoGraph X software. […]

hNav1.2 = biological target: T3, hNav1.2 (Homo sapiens, UniProt Q99250); assay: Two-electrode voltage-clamp recording of hNav1.2 gating in Xenopus oocytes; assay type: cell-based; conditions: for Activation (V1/2): hNav1.2, 100 μM drug, DMSO control −31.7 ± 1.2 mV; for Inactivation (V1/2): hNav1.2, steady-state inactivation, 100 μM drug, DMSO control −59.7 ± 0.4 mV
T3 construct: host or cells: Xenopus oocytes (cRNA injection)

α1/β2/γ2 GABAA receptor = biological target: T4, α1/β2/γ2 GABAA receptor (Homo sapiens, UniProt P14867+P18507+P47870); assay: GABAA receptor activation in oocytes; assay type: cell-based; conditions: 100 μM, oocytes at −70 mV; 5 μM muscimol as positive control
T4 construct: expressed in transfected cells; host or cells: oocytes
T4 sequence (P14867 28-456): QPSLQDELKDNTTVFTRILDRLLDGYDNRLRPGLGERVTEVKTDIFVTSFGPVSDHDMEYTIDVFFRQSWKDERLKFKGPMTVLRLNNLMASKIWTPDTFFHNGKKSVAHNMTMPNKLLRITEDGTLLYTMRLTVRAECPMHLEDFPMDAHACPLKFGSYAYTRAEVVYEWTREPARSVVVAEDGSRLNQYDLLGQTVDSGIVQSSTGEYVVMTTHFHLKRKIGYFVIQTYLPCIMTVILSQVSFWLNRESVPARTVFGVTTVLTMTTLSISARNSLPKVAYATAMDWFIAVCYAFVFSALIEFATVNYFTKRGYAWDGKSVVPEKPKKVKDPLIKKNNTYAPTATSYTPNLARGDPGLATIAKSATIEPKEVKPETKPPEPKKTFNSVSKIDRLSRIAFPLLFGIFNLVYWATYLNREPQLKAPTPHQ
T4 sequence (P47870 25-512 limits assumed): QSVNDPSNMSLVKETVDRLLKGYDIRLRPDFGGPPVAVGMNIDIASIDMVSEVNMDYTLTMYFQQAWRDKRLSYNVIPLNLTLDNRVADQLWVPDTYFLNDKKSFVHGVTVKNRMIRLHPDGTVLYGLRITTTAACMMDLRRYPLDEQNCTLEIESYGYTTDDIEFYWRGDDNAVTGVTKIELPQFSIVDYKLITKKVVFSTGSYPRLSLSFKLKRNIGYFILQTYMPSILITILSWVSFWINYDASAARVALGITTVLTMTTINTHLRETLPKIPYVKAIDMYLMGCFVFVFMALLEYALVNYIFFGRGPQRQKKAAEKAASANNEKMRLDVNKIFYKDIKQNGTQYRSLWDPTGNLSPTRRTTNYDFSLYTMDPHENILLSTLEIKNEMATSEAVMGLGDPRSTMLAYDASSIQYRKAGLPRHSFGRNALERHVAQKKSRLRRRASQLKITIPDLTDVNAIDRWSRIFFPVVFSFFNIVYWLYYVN
T4 sequence (P18507 40-475): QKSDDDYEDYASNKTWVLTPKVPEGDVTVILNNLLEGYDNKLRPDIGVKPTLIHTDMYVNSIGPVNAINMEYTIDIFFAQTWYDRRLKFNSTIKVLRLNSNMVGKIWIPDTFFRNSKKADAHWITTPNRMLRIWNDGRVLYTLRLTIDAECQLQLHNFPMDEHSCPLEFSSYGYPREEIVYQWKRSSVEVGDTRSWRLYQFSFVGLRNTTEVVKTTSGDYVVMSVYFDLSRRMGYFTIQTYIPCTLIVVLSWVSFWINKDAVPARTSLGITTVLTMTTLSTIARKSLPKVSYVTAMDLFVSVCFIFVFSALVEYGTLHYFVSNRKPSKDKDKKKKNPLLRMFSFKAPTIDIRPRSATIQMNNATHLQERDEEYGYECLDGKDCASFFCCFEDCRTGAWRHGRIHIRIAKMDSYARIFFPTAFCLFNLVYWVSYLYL
Description: Oocytes were kept at −70 mV throughout the experiment.

hNav1.6 = biological target: T5, hNav1.6 (Homo sapiens, UniProt Q9UQD0); assay: Two-electrode voltage-clamp recording of hNav1.6 gating in Xenopus oocytes; assay type: cell-based; conditions: for Activation (V1/2): hNav1.6, 100 μM drug, DMSO control −26.7 ± 1.1 mV; for Inactivation (V1/2): hNav1.6, steady-state inactivation, 100 μM drug, DMSO control −65.1 ± 0.8 mV
T5 construct: host or cells: Xenopus oocytes (cRNA injection)

[1] = test system: flurothyl-induced seizures in male Crl:CF1 mice; assay: Flurothyl seizure induction; assay type: in vivo, mouse; conditions: 75 mg/kg ip
Procedure: (§1) Animal husbandry and drug administration. Male Crl:CF1 mice (10-12 weeks old, Charles River) were housed under a 12 hour light-dark cycle with free access to food and water and all experiments were carried out between 10 am and 4 pm. 1-[phenyl-methyl]-1H-1,2,3-triazole-4-carboxamide-5-methyl (Compound B) (Sigma Aldrich) was suspended in a 40% solution of cyclodextrin (Sigma Aldrich) in sterile saline (0.9%) and 15 minutes prior to each seizure induction paradigm, 75 mg/kg of compound B was administered via intraperitoneal injection (ip) injection. Vehicle treated animals were similarly administrated 40% cyclodextrin and served as the controls for each experiment. The Emory University Institutional Animal Care and Use Committee approved all experimental protocols involving mice.
Flurothyl Seizure induction. Latencies to flurothyl-induced seizures were determined as previously described (Neurobiol Dis 49C, 211-220 (2012)). Briefly, flurothyl (2,2,2-trifluroethylether; Sigma Aldrich) was dispensed at a rate of 20 μl/minute into a Plexiglas chamber and latencies to three behavioral phenotypes were compared between vehicle-treated and compound B-treated (75 mg/kg) mice (n=12 per group): 1) the first myoclonic jerk, 2) a generalized tonic-clonic seizure, and 3) a generalized tonic-clonic seizure with tonic extension. Similar to picrotoxin-mediated seizure induction, the myoclonic jerk is the first observable behavioral phenotype followed by the generalized tonic-clonic seizure which is characterized by a loss of postural control with rapid movement of all four limbs for at least 5s. Lastly, the generalized tonic-clonic seizure with tonic hind limb extension involves the loss of postural control and rapid movement of all four limbs followed by downward extension of the limbs parallel to the body.
(§2) Statistical analysis. A Student's t-test was used to identify statistically significant differences in latencies between vehicle- and compound B-treated groups for each seizure phenotype following administration of flurothyl and picrotoxin. […] All data are presented as the mean±s.e.m.; p values<0.05 were considered significant.

[2] = test system: 6 Hz psychomotor seizures in male Crl:CF1 mice; assay: 6 Hz psychomotor seizure induction; assay type: in vivo, mouse; conditions: 17 mA
Procedure: as §1
6 Hz psychomotor seizure induction. Topical anesthetic (0.5% tetracaine hydrochloride ophthalmic solution) was applied to the cornea 30 minutes before testing. Fifteen minutes prior to seizure induction, mice were administrated vehicle or compound B (n=12 per group). Each mouse was manually restrained and corneal stimulation (0.2 ms pulse, 6 Hz, 3s) was performed at a current intensity of 17 mA (ECT Unit 57800; Ugo Basile, Comerio Italy). […] The mice were randomized into two groups and in the first trial one group received the vehicle whereas the other was administered compound B. The second trial was performed one week later with each group receiving the opposite treatment.
as §2

[3] = test system: picrotoxin-induced seizures in male Crl:CF1 mice; assay: Picrotoxin seizure induction; assay type: in vivo, mouse
Procedure: as §1
Seizure induction paradigms and analyses. Picrotoxin seizure induction—15 minutes prior to i.p. injection of picrotoxin (10 mg/kg, Sigma Aldrich), mice were administered vehicle or compound B (n=12 per group). Latencies to the first myoclonic jerk, forelimb clonus, and generalized tonic-clonic seizure were compared between compound B and vehicle-treated mice. The myoclonic jerk is characterized by a sudden jerk of the upper body whereas forelimb clonus involves rapid movement of the forelimbs for at least 5s. Finally, the generalized tonic-clonic seizure involves the loss of postural control with rapid movement of the limbs for at least 5s.
as §2

[4] = cited from earlier work

SMILES	effect on hNav1.1 persistent current (hNav1.1)	effect on hNav1.1 opening (G-V relationship) (hNav1.1)	Activation (V1/2) (hNav1.1)	Inactivation (V1/2) (hNav1.1)	Activation (V1/2) (hNav1.3)	Inactivation (V1/2) (hNav1.3)	Activation (V1/2) (hNav1.2)	Inactivation (V1/2) (hNav1.2)	activation of α1/β2/γ2 GABAA receptor (inward currents) (α1/β2/γ2 GABAA receptor)	Activation (V1/2) (hNav1.6)	Inactivation (V1/2) (hNav1.6)	also measured
NC(=O)c1nnn(Cc2cccc(F)c2)c1N [Compound A, 1-[(3-fluorophenyl)methyl]-1H-1,2,3-Triazole-4-carboxamide-5-amine]	neither of these compounds influences	clearly inhibit hNav1.1 opening	−30.8 ± 1.0 mV	−50.5 ± 1.2 mV	–	–	–	–	–	–	–	–
Cc1c(C(N)=O)nnn1Cc1ccccc1 [Compound B, 1-[phenyl-methyl]-1H-1,2,3-Triazole-4-carboxamide-5-methyl]	neither of these compounds influences	clearly inhibit hNav1.1 opening	−27.4 ± 1.0 mV	−49.4 ± 0.3 mV	−25.8 ± 1.4 mV	−50.0 ± 0.8 mV	−23.6 ± 1.1 mV	−53.6 ± 1.2 mV	do not activate	−23.8 ± 1.9 mV	−62.6 ± 0.7 mV	average action potential (firing) threshold (rat hippocampal neurons; potential at which rate of rise crosses 40 V/s, control −43.3±2.4 mV): −27.8±1.6 mV; current injection needed to elicit an action potential (rat hippocampal neurons; control 20 pA): 80 pA; increase of average latency to GTCS+ vs vehicle ([1]; p<0.0001): 56%; increase of average latency to first GTCS vs vehicle ([1]; p<0.0001): 43%; average latency to the MJ vs vehicle ([1]; p=0.6): comparable; average latency to the first GTCS ([1]; vehicle 281±19 s): 652 ± 48 s; average latency to GTCS with hind limb extension (GTCS+) ([1]; vehicle 652±38 s): 1155 ± 89 s; animals exhibiting behavioral seizures ([2]; 75 mg/kg ip, n=7/24, vehicle 92%): 29%; seizure severity (modified Racine scale) vs vehicle ([2]; p<0.0001): dramatically less severe; reduction in the number of mice exhibiting seizures ([2]; vs vehicle, p<0.0001): 63%; average latency to the first generalized tonic-clonic seizure (GTCS) ([3]; picrotoxin 10 mg/kg, Compound B 75 mg/kg ip 15 min before, vehicle 1006±106 s): 1693 ± 315 s; frequency of the behavioral seizures vs vehicle ([3]; picrotoxin, 75 mg/kg ip): no difference; increase of average latency to first GTCS vs vehicle ([3]; picrotoxin, 75 mg/kg ip, p=0.03): 41%; average latency to forelimb clonus (FC) vs vehicle ([3]; picrotoxin, 75 mg/kg ip, p=0.3): no statistically significant differences; average latency to the first myoclonic jerk (MJ) vs vehicle ([3]; picrotoxin, 75 mg/kg ip, p=0.4): no statistically significant differences; effect on hNav1.1 persistent current (hNav1.1; listed as compound B): did not alter; depolarizing shift in channel activation voltage (hNav1.1; hNav1.1, 100 μM): ~+11 mV; Entry into SI (t) (hNav1.1; hNav1.1 slow inactivation, time-dependence of entry, DMSO 5.6 ± 0.3 s): 5.5 ± 0.4 s; Voltage-dependence of SI (V), V1/2 (hNav1.1; hNav1.1 slow inactivation, DMSO −43.7 ± 1.6 mV): −43.2 ± 1.3 mV
OCc1cn(Cc2cccc(F)c2)nn1 [Compound C, 1-[(3-fluorophenyl)methyl]-1H-1,2,3-Triazole-4-hydroxymethyl]	–	no longer affects hNav1.1 opening	−38.4 ± 1.3 mV	−49.2 ± 0.6 mV	–	–	–	–	–	–	–	–
NC(=O)c1nnn(Cc2ccc(F)cc2)c1N [Compound D, 1-[(4-fluorophenyl)methyl]-1H-1,2,3-Triazole-4-carboxamide-5-amine]	–	not significant	−32.5 ± 2.3 mV	−49.8 ± 1.6 mV	–	–	–	–	–	–	–	–
NC(=O)c1cn(Cc2c(F)cccc2F)nn1 [Rufinamide, 1-[(2,6-difluorophenyl)methyl]-1H-1,2,3-Triazole-4-carboxamide, reference compound]	did not alter	dramatic depolarizing shift	−30.6 ± 0.9 mV	–	−24.5 ± 2.4 mV	−52.6 ± 1.6 mV	−29.5 ± 1.2 mV	−57.7 ± 0.5 mV	do not activate	−28.1 ± 0.8 mV	−60.0 ± 0.7 mV	alteration of the midpoint of hNav1.6 channel availability (hNav1.6; hNav1.6, 100 μM rufinamide): about +5 mV; solubility in DMSO ([4]; DMSO): up to 9 mg/ml; solubility in water ([4]; water): slightly soluble
